ChEMBL document CHEMBL3232779, “Discovery of a potent stapled helix peptide that binds to the 70N domain of replication protein A” (J Med Chem, 2014)
Positions of bridges follow the written chain, without caps; N, C: chain ends. Non-standard residues stand in square brackets, D forms with d. Residues, ends and D or L forms follow the SMILES beside them. *: point of attachment. X1 = O=C(O)c1cc(NC(=S)*)ccc1-c1c2ccc(=O)cc-2oc2cc(O)ccc12; Phe(3,4-Cl2) = N[C@@H](Cc1ccc(Cl)c(Cl)c1)C(=O)O; R5 = C=CCCC[C@@](C)(N)C(=O)O

Target: T1, Replication protein A 70 kDa DNA-binding subunit (Homo sapiens, UniProt P27694)
T1 sequence (P27694 whole entry): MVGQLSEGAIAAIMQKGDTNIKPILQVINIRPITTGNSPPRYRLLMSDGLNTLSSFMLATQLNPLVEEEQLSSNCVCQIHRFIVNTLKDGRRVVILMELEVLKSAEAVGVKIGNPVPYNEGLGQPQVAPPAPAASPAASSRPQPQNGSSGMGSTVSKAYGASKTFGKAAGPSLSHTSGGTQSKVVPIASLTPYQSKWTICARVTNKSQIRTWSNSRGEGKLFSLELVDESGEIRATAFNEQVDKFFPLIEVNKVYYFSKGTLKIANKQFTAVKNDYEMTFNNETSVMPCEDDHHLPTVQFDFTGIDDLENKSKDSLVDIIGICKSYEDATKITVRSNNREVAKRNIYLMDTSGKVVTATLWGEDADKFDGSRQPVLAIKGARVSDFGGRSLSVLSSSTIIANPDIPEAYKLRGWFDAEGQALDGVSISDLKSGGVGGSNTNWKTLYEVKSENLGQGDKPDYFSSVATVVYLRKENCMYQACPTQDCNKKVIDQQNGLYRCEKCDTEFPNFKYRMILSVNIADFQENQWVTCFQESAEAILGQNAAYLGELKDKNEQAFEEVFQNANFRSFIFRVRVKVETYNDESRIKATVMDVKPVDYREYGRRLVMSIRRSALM

Compound	Kd [µM]
CC(C)C[C@H](NC(=O)[C@H](CC(=O)O)NC(=O)[C@H](CC(=O)O)NC(=O)[C@H](C)NC(=O)[C@@H](NC(=O)[C@H](Cc1ccccc1)NC(=O)[C@H](CC(=O)O)NC(=S)Nc1ccc(-c2c3ccc(=O)cc-3oc3cc(O)ccc23)c(C(=O)O)c1)[C@@H](C)O)C(=O)N[C@@H](CCC(=O)O)C(=O)N[C@@H](CCC(=O)O)C(=O)N[C@@H](CC(C)C)C(=O)N[C@@H](CC(=O)O)C(=O)N[C@H](C(=O)N[C@@H](CC(C)C)C(=O)N[C@@H](C)C(=O)N[C@@H](CO)C(N)=O)[C@@H](C)O (X1-DFTADDLEELDTLAS-NH2)	6.4
CC(C)C[C@H](NC(=O)[C@H](CC(=O)O)NC(=O)[C@H](CC(=O)O)NC(=O)[C@H](C)NC(=O)[C@@H](NC(=O)[C@H](Cc1ccccc1)NC(=O)[C@H](CC(=O)O)NC(=S)Nc1ccc(-c2c3ccc(=O)cc-3oc3cc(O)ccc23)c(C(=O)O)c1)[C@@H](C)O)C(=O)N[C@@H](CCC(=O)O)C(=O)N[C@@H](CCC(=O)O)C(=O)N[C@@H](Cc1c[nH]c2ccccc12)C(=O)N[C@@H](Cc1ccccc1)C(=O)N[C@@H](C)C(N)=O (X1-DFTADDLEEWFA-NH2)	0.91
CC(C)C[C@H](NC(=O)[C@H](C)NC(=O)[C@H](Cc1ccccc1)NC(=O)[C@H](Cc1c[nH]c2ccccc12)NC(=O)[C@H](CCC(=O)O)NC(=O)[C@H](CCC(=O)O)NC(=O)[C@H](CC(C)C)NC(=O)[C@H](CC(=O)O)NC(=O)[C@H](CC(=O)O)NC(=O)[C@H](C)NC(=O)[C@@H](NC(=O)[C@H](Cc1ccccc1)NC(=O)[C@H](CC(=O)O)NC(=S)Nc1ccc(-c2c3ccc(=O)cc-3oc3cc(O)ccc23)c(C(=O)O)c1)[C@@H](C)O)C(N)=O (X1-DFTADDLEEWFAL-NH2)	0.33
CC(C)C[C@H](NC(=O)[C@H](C)NC(=O)[C@H](Cc1ccccc1)NC(=O)[C@H](Cc1c[nH]c2ccccc12)NC(=O)[C@H](CCC(=O)O)NC(=O)[C@H](CCC(=O)O)NC(=O)[C@H](CC(C)C)NC(=O)[C@H](CC(=O)O)NC(=O)[C@H](CC(=O)O)NC(=O)[C@H](C)NC(=O)[C@@H](NC(=O)[C@H](Cc1ccccc1)NC(=O)[C@H](CC(=O)O)NC(=S)Nc1ccc(-c2c3ccc(=O)cc-3oc3cc(O)ccc23)c(C(=O)O)c1)[C@@H](C)O)C(=O)N[C@@H](C)C(N)=O (X1-DFTADDLEEWFALA-NH2)	0.58
CC(C)C[C@H](NC(=O)[C@H](C)NC(=O)[C@H](Cc1ccc(Cl)c(Cl)c1)NC(=O)[C@H](Cc1c[nH]c2ccccc12)NC(=O)[C@H](CCC(=O)O)NC(=O)[C@H](CCC(=O)O)NC(=O)[C@H](CC(C)C)NC(=O)[C@H](CC(=O)O)NC(=O)[C@H](CC(=O)O)NC(=O)[C@H](C)NC(=O)[C@@H](NC(=O)[C@H](Cc1ccccc1)NC(=O)[C@H](CC(=O)O)NC(=S)Nc1ccc(-c2c3ccc(=O)cc-3oc3cc(O)ccc23)c(C(=O)O)c1)[C@@H](C)O)C(N)=O (X1-DFTADDLEEW[Phe(3,4-Cl2)]AL-NH2)	0.022
CC(C)C[C@H](NC(=O)[C@H](C)NC(=O)[C@H](Cc1ccccc1)NC(=O)[C@H](Cc1c[nH]c2ccccc12)NC(=O)[C@@]1(C)CCC/C=C\CCC[C@@](C)(NC(=O)[C@H](C)NC(=O)[C@@H](NC(=O)[C@H](Cc2ccccc2)NC(=O)[C@H](CC(=O)O)NC(=S)Nc2ccc(-c3c4ccc(=O)cc-4oc4cc(O)ccc34)c(C(=O)O)c2)[C@@H](C)O)C(=O)N[C@@H](CC(=O)O)C(=O)N[C@@H](CC(C)C)C(=O)N[C@@H](CCC(=O)O)C(=O)N1)C(=O)O (X1-DFTA[R5]DLE[R5]WFAL-OH; staple (Z) 5-9)	0.57
CC(C)C[C@H](NC(=O)[C@H](C)NC(=O)[C@H](Cc1ccccc1)NC(=O)[C@H](Cc1c[nH]c2ccccc12)NC(=O)[C@@]1(C)CCC/C=C\CCC[C@@](C)(NC(=O)[C@H](C)NC(=O)[C@@H](NC(=O)[C@H](Cc2ccccc2)NC(=O)[C@H](CC(=O)O)NC(=S)Nc2ccc(-c3c4ccc(=O)cc-4oc4cc(O)ccc34)c(C(=O)O)c2)[C@@H](C)O)C(=O)N[C@@H](CC(N)=O)C(=O)N[C@@H](CC(C)C)C(=O)N[C@@H](CCC(=O)O)C(=O)N1)C(=O)O (X1-DFTA[R5]NLE[R5]WFAL-OH; staple (Z) 5-9)	3.7
CC(C)C[C@H](NC(=O)[C@H](C)NC(=O)[C@H](Cc1ccccc1)NC(=O)[C@H](Cc1c[nH]c2ccccc12)NC(=O)[C@H](C)NC(=O)[C@H](CCC(=O)O)NC(=O)[C@H](CC(C)C)NC(=O)[C@H](CC(N)=O)NC(=O)[C@H](C)NC(=O)[C@H](C)NC(=O)[C@@H](NC(=O)[C@H](Cc1ccccc1)NC(=O)[C@H](CC(N)=O)NC(=S)Nc1ccc(-c2c3ccc(=O)cc-3oc3cc(O)ccc23)c(C(=O)O)c1)[C@@H](C)O)C(=O)N[C@@H](C)C(=O)N[C@@H](CO)C(N)=O (X1-NFTAANLEAWFALAS-NH2)	21
CC(C)C[C@H](NC(=O)[C@H](C)NC(=O)[C@H](Cc1ccccc1)NC(=O)[C@H](Cc1c[nH]c2ccccc12)NC(=O)[C@@]1(C)CCC/C=C\CCC[C@@](C)(NC(=O)[C@H](C)NC(=O)[C@@H](NC(=O)[C@H](Cc2ccccc2)NC(=O)[C@H](CC(N)=O)NC(=S)Nc2ccc(-c3c4ccc(=O)cc-4oc4cc(O)ccc34)c(C(=O)O)c2)[C@@H](C)O)C(=O)N[C@@H](CC(=O)O)C(=O)N[C@@H](CC(C)C)C(=O)N[C@@H](CCC(=O)O)C(=O)N1)C(=O)O (X1-NFTA[R5]DLE[R5]WFAL-OH; staple (Z) 5-9)	1.5
CC(C)C[C@H](NC(=O)[C@H](C)NC(=O)[C@H](Cc1ccc(Cl)c(Cl)c1)NC(=O)[C@H](Cc1c[nH]c2ccccc12)NC(=O)[C@@]1(C)CCC/C=C\CCC[C@@](C)(NC(=O)[C@H](C)NC(=O)[C@@H](NC(=O)[C@H](Cc2ccccc2)NC(=O)[C@H](CC(N)=O)NC(=S)Nc2ccc(-c3c4ccc(=O)cc-4oc4cc(O)ccc34)c(C(=O)O)c2)[C@@H](C)O)C(=O)N[C@@H](CC(=O)O)C(=O)N[C@@H](CC(C)C)C(=O)N[C@@H](CCC(=O)O)C(=O)N1)C(=O)O (X1-NFTA[R5]DLE[R5]W[Phe(3,4-Cl2)]AL-OH; staple (Z) 5-9)	0.048
CC(C)C[C@H](NC(=O)[C@H](C)NC(=O)[C@H](Cc1ccccc1)NC(=O)[C@H](Cc1c[nH]c2ccccc12)NC(=O)[C@@]1(C)CCC/C=C\CCC[C@@](C)(NC(=O)[C@H](C)NC(=O)[C@@H](NC(=O)[C@H](Cc2ccccc2)NC(=O)[C@H](CC(N)=O)NC(=S)Nc2ccc(-c3c4ccc(=O)cc-4oc4cc(O)ccc34)c(C(=O)O)c2)[C@@H](C)O)C(=O)N[C@@H](CC(N)=O)C(=O)N[C@@H](CC(C)C)C(=O)N[C@@H](CCC(=O)O)C(=O)N1)C(=O)O (X1-NFTA[R5]NLE[R5]WFAL-OH; staple (Z) 5-9)	7.4
Ac-AFTADDLEELDTLAS-NH2	152
Ac-DFAADDLEELDTLAS-NH2	152
Ac-DFTAADLEELDTLAS-NH2	31
Ac-DFTAADLEEWFALAS-NH2	2.3
Ac-DFTADALEELDTLAS-NH2	225
Ac-DFTADALEEWFALAS-NH2	28
Ac-DFTADDAEELDTLAS-NH2	172
Ac-DFTADDLAELDALAS-NH2	20

Compound	Kd [µM]
Ac-DFTADDLAELDTLAS-OH	22
Ac-DFTADDLAEWFALAS-NH2	28
Ac-DFTADDLAEWFTLAS-NH2	43
Ac-DFTADDLEALDTLAS-NH2	167
Ac-DFTADDLEAWFALAS-NH2	2.4
Ac-DFTADDLEEADTLAS-NH2	197
Ac-DFTADDLEELATLAS-NH2	85
Ac-DFTADDLEELDALAS-NH2	17
Ac-DFTADDLEELDTAAS-NH2	63
Ac-DFTADDLEELDTLAA-NH2	26
Ac-DFTADDLEELFTLAS-NH2	22
Ac-DFTADDLEEWDTLAS-NH2	138
Ac-DFTADDLEEWFALAS-NH2	1.2
Ac-DFTADDLEEWFTLAS-NH2	2.7
Ac-DFTADDLEQWFALAS-NH2	2.6
Ac-DFTADNLEEWFALAS-NH2	6.9
Ac-DFTANDLEEWFALAS-NH2	19
Ac-NFTADDLEEWFALAS-NH2	5.8

Tested on: U2OS; call rule not given here
Assay: Cellular uptake in human U2OS cells after 24 hrs by confocal microscopy
Type: ADME, cell-based

Compound	Drug uptake
CC(C)C[C@H](NC(=O)[C@H](C)NC(=O)[C@H](Cc1ccccc1)NC(=O)[C@H](Cc1c[nH]c2ccccc12)NC(=O)[C@@]1(C)CCC/C=C\CCC[C@@](C)(NC(=O)[C@H](C)NC(=O)[C@@H](NC(=O)[C@H](Cc2ccccc2)NC(=O)[C@H](CC(=O)O)NC(=S)Nc2ccc(-c3c4ccc(=O)cc-4oc4cc(O)ccc34)c(C(=O)O)c2)[C@@H](C)O)C(=O)N[C@@H](CC(=O)O)C(=O)N[C@@H](CC(C)C)C(=O)N[C@@H](CCC(=O)O)C(=O)N1)C(=O)O (X1-DFTA[R5]DLE[R5]WFAL-OH; staple (Z) 5-9)	Not Active
CC(C)C[C@H](NC(=O)[C@H](C)NC(=O)[C@H](Cc1ccccc1)NC(=O)[C@H](Cc1c[nH]c2ccccc12)NC(=O)[C@@]1(C)CCC/C=C\CCC[C@@](C)(NC(=O)[C@H](C)NC(=O)[C@@H](NC(=O)[C@H](Cc2ccccc2)NC(=O)[C@H](CC(=O)O)NC(=S)Nc2ccc(-c3c4ccc(=O)cc-4oc4cc(O)ccc34)c(C(=O)O)c2)[C@@H](C)O)C(=O)N[C@@H](CC(N)=O)C(=O)N[C@@H](CC(C)C)C(=O)N[C@@H](CCC(=O)O)C(=O)N1)C(=O)O (X1-DFTA[R5]NLE[R5]WFAL-OH; staple (Z) 5-9)	Active
CC(C)C[C@H](NC(=O)[C@H](C)NC(=O)[C@H](Cc1ccccc1)NC(=O)[C@H](Cc1c[nH]c2ccccc12)NC(=O)[C@@]1(C)CCC/C=C\CCC[C@@](C)(NC(=O)[C@H](C)NC(=O)[C@@H](NC(=O)[C@H](Cc2ccccc2)NC(=O)[C@H](CC(N)=O)NC(=S)Nc2ccc(-c3c4ccc(=O)cc-4oc4cc(O)ccc34)c(C(=O)O)c2)[C@@H](C)O)C(=O)N[C@@H](CC(N)=O)C(=O)N[C@@H](CC(C)C)C(=O)N[C@@H](CCC(=O)O)C(=O)N1)C(=O)O (X1-NFTA[R5]NLE[R5]WFAL-OH; staple (Z) 5-9)	Active

Target: not listed separately
Assay: Binding affinity to recombinant human RPA70C/32D/14 by fluorescence polarization anisotropy assay

Compound	Kd [µM]
CC(C)C[C@H](NC(=O)[C@H](C)NC(=O)[C@H](Cc1ccccc1)NC(=O)[C@H](Cc1c[nH]c2ccccc12)NC(=O)[C@@]1(C)CCC/C=C\CCC[C@@](C)(NC(=O)[C@H](C)NC(=O)[C@@H](NC(=O)[C@H](Cc2ccccc2)NC(=O)[C@H](CC(N)=O)NC(=S)Nc2ccc(-c3c4ccc(=O)cc-4oc4cc(O)ccc34)c(C(=O)O)c2)[C@@H](C)O)C(=O)N[C@@H](CC(N)=O)C(=O)N[C@@H](CC(C)C)C(=O)N[C@@H](CCC(=O)O)C(=O)N1)C(=O)O (X1-NFTA[R5]NLE[R5]WFAL-OH; staple (Z) 5-9)	12

Target: T1, Replication protein A 70 kDa DNA-binding subunit
Assay: Binding affinity to recombinant human RPA70 A/B region (181 to 422 amino acids) expressed in Escherichia coli Rosetta by fluorescence polarization anisotropy assay

Compound	Kd [µM]
CC(C)C[C@H](NC(=O)[C@H](C)NC(=O)[C@H](Cc1ccccc1)NC(=O)[C@H](Cc1c[nH]c2ccccc12)NC(=O)[C@@]1(C)CCC/C=C\CCC[C@@](C)(NC(=O)[C@H](C)NC(=O)[C@@H](NC(=O)[C@H](Cc2ccccc2)NC(=O)[C@H](CC(N)=O)NC(=S)Nc2ccc(-c3c4ccc(=O)cc-4oc4cc(O)ccc34)c(C(=O)O)c2)[C@@H](C)O)C(=O)N[C@@H](CC(N)=O)C(=O)N[C@@H](CC(C)C)C(=O)N[C@@H](CCC(=O)O)C(=O)N1)C(=O)O (X1-NFTA[R5]NLE[R5]WFAL-OH; staple (Z) 5-9)	12
